Source: article PMC10146604, “The Balance between Hydrophobicity/Aromaticity and Positively Charged Residues May Influence the Cell Penetration Ability” (Pharmaceutics, 2023)
Peptide text beside a SMILES is read from it. * marks the point of attachment. 5FAM = O=C1OC2(c3ccc(O)cc3Oc3cc(O)ccc32)c2ccc(C(=O)*)cc21; Dabcyl = CN(C)c1ccc(N=Nc2ccc(C(=O)*)cc2)cc1

System: EBC-1 human lung squamous carcinoma cells
Test: Cellular uptake by flow cytometry
Format: cell-based
Conditions: 90 min, 37 °C, trypsinization; for cellular uptake relative to the control octaarginine (Cf-Arg8) / cellular uptake (in words): 5 µM peptide, serum-free medium; for cellular uptake relative to the control octaarginine (Cf-Arg8): flow cytometry fluorescence intensity normalized to Cf-Arg8; for cellular uptake (in words): compared with Cf-Arg8
Experimental: For the examination of the internalization of the peptides, 10^5 cultured EBC-1 cells per well were plated on 24-well plates. The cells were incubated for 24 h at 37 °C then they were treated with peptides at different concentrations for 90 min in a serum-free medium. In the negative control the cells were treated with a serum-free medium. After the incubation, the peptide solutions were removed and 100 µL trypsin (0.25%) was added for 5–10 min to remove membrane bound peptides and detach the adherent cells from the plates. The activity of trypsin was terminated by the addition of 900 µL HPMI buffer (glucose, NaHCO3, NaCl, HEPES, KCl, MgCl2, CaCl2, Na2HPO4∙2H2O) containing 10% fetal bovine serum, and the cells were transferred from the plates to FACS-tubes for measurement. The cells were centrifuged at 216× g at 4 °C for 5 min and the supernatant was removed. The cells were resuspended in 250 µL HPMI, and the fluorescence intensity of the cells was quantified using flow cytometry (BD LSR II, BD Bioscience, San Jose, CA, USA). The data were analyzed with FACSDiva 5.0 software (BD Bioscience, San Jose, CA, USA).
The cellular uptake of the peptides was determined using flow cytometry on EBC-1 human lung squamous carcinoma cells. The peptides were added to the cells at a concentration of 5 µM for 90 min at 37 °C. Selected constructs were used to study the concentration dependence at 0.125, 1.25 and 2.5 µM with 90 min treatment times. When evaluating the measurements data, the fluorescence of cells treated with peptides was corrected with the autofluorescence of cells without peptide treatment. The toxicity of the peptide conjugates was determined by comparing the live and dead cells ratio during the flow cytometry analysis.

| SMILES | cellular uptake relative to the control octaarginine (Cf-Arg8) (EBC-1 cells) | cellular uptake (in words) (EBC-1 cells, flow cytometry) | other results |
| --- | --- | --- | --- |
| CN(C)c1ccc(N=Nc2ccc(C(=O)N[C@@H](CCCNC(=N)N)C(=O)N[C@@H](CCCNC(=N)N)C(=O)N[C@@H](CCCNC(=N)N)C(=O)N[C@@H](CCCNC(=N)N)C(=O)N[C@@H](CCCNC(=N)N)C(=O)N[C@@H](CCCNC(=N)N)C(=O)N[C@@H](CCCCNC(=O)c3ccc4c(c3)C(=O)OC43c4ccc(O)cc4Oc4cc(O)ccc43)C(N)=O)cc2)cc1 [Dabcyl-(Arg)6-Lys(Cf)] | 6.5 times | – | – |
| CN(C)c1ccc(N=Nc2ccc(C(=O)N[C@@H](CCCNC(=N)N)C(=O)N[C@@H](CCCNC(=N)N)C(=O)N[C@@H](CCCNC(=N)N)C(=O)N[C@@H](CCCNC(=N)N)C(=O)N[C@@H](CCCNC(=N)N)C(=O)N[C@@H](CCCNC(=N)N)C(=O)N[C@@H](CCCNC(=N)N)C(=O)N[C@@H](CCCCNC(=O)c3ccc4c(c3)C(=O)OC43c4ccc(O)cc4Oc4cc(O)ccc43)C(N)=O)cc2)cc1 [Dabcyl-(Arg)7-Lys(Cf)] | 6 times | – | – |
| CN(C)c1ccc(N=Nc2ccc(C(=O)NCCCC[C@H](NC(=O)[C@H](CCCNC(=N)N)NC(=O)[C@H](CCCNC(=N)N)NC(=O)[C@H](CCCNC(=N)N)NC(=O)[C@H](CCCNC(=N)N)NC(=O)[C@H](CCCNC(=N)N)NC(=O)[C@H](CCCNC(=N)N)NC(=O)c3ccc4c(c3)C(=O)OC43c4ccc(O)cc4Oc4cc(O)ccc43)C(N)=O)cc2)cc1 [Cf-(Arg)6-Lys(Dabcyl)] | – | surprisingly poor cellular uptake | cellular uptake compared with octaarginine at low concentrations (in words) (EBC-1 cells, 0.125, 1.25 and 2.5 µM peptide, flow cytometry): significantly decreased uptake |
| CN(C)c1ccc(N=Nc2ccc(C(=O)NCc3ccc(C(=O)N[C@@H](CCCNC(=N)N)C(=O)N[C@@H](CCCNC(=N)N)C(=O)N[C@@H](CCCNC(=N)N)C(=O)N[C@@H](CCCNC(=N)N)C(=O)N[C@@H](CCCNC(=N)N)C(=O)N[C@@H](CCCNC(=N)N)C(=O)N[C@@H](CCCNC(=N)N)C(=O)N[C@@H](CCCNC(=N)N)C(=O)N[C@@H](CCCCNC(=O)c4ccc5c(c4)C(=O)OC54c5ccc(O)cc5Oc5cc(O)ccc54)C(N)=O)cc3)cc2)cc1 [Dabcyl-AMBA-(Arg)8-Lys(Cf)] | ~ 8 times | – | cellular uptake relative to Cf-Arg8 (EBC-1 cells, 1.25 µM peptide, flow cytometry): ~ 6 times; cellular uptake relative to octaarginine (EBC-1 cells, 2.5 µM peptide, flow cytometry): 30 times |
| CN(C)c1ccc(N=Nc2ccc(C(=O)N[C@@H](CCCNC(=N)N)C(=O)N[C@@H](CCCNC(=N)N)C(=O)N[C@@H](CCCNC(=N)N)C(=O)N[C@@H](CCCNC(=N)N)C(=O)N[C@@H](CCCCNC(=O)c3ccc4c(c3)C(=O)OC43c4ccc(O)cc4Oc4cc(O)ccc43)C(N)=O)cc2)cc1 [Dabcyl-(Arg)4-Lys(Cf)] (Dabcyl-RRRRK(5FAM)-NH2) | – | lower cellular uptake than octaarginine | – |
